Results from US10105357B2, “Indication of antibiotic drugs for preparation of cancer inhibition pharmaceutical composition” (LAUNX BIOMEDICAL CO., LTD., priority 2014, dated 2018).
Where two headings read alike, the source gives them in different places.

Tests used:
[1] = tested on: AGS (Gastric Adenocarcinoma); assay: Cell viability analysis, gastric cancer AGS; format: cell-based, human; conditions: Homo sapiens
[2] = tested on: Hep3B (hepatocellular carcinoma); assay: Cell viability analysis, hepatic cancer Hep3B; format: cell-based, human; conditions: Homo sapiens, Hep3B, 72 h, read-out: The results of antibiotic drug inhibiting cancer cell lines (cell viability analysis), Hep3B
[3] = tested on: A375 (Amelanotic Melanoma); assay: Cell viability analysis, skin cancer A375; format: cell-based, human; conditions: Homo sapiens
AsPC-1 = assay: Cell viability analysis, pancreatic cancer AsPC-1; format: cell-based, human; conditions: Homo sapiens, ASPC1, 72 h, read-out: The results of antibiotic drug inhibiting cancer cell lines (cell viability analysis), AsPC-1
[4] = tested on: BCC (basal cell carcinoma); assay: Cell viability analysis, skin cancer BCC; format: cell-based, human; conditions: Homo sapiens, 72 h, read-out: The results of antibiotic drug inhibiting cancer cell lines (cell viability analysis), BCC
[5] = tested on: TSGH-8301 (Urinary Bladder Carcinoma); assay: Cell viability analysis, bladder cancer TSGH-8301; format: cell-based, human; conditions: Homo sapiens
[6] = tested on: HepG2 (Hepatocellular Carcinoma); assay: Cell viability analysis, hepatic cancer HepG2; format: cell-based, human; conditions: Homo sapiens, HepG2
[7] = tested on: HI650 (Lung Adenocarcinoma); assay: Cell viability analysis, lung cancer HI650; format: cell-based, human; conditions: Homo sapiens
[8] = tested on: HL-60 (Acute Promyelocytic Leukemia); assay: Cell viability analysis, leukemia HL-60; format: cell-based, human; conditions: Homo sapiens, HL-60; drug 10 μM, 72 hours, WST-1, OD450 nm; read-out: cell viability (survival rate), HL-60
BxPC-3 = assay: Cell viability analysis, pancreatic cancer BxPC-3; format: cell-based, human; conditions: Homo sapiens, BXPC-3, 72 h, read-out: The results of antibiotic drug inhibiting cancer cell lines (cell viability analysis), BxPC-3
[9] = tested on: A549 (Lung Adenocarcinoma); assay: Cell viability analysis, lung cancer A549; format: cell-based, human; conditions: Homo sapiens, A549
[10] = tested on: 786-O (Renal adenocarcinoma); assay: Cell viability analysis, renal cancer 786-O; format: cell-based, human; conditions: Homo sapiens, 786-0, 72 h, read-out: The results of antibiotic drug inhibiting cancer cell lines (cell viability analysis), 786-O
[11] = tested on: LoVo (Colorectal Adenocarcinoma); assay: Cell viability analysis, colon cancer LoVo; format: cell-based, human; conditions: Homo sapiens, LoVo
[12] = tested on: SAS (Tongue squamous cell carcinoma); assay: Cell viability analysis, tongue cancer SAS; format: cell-based, human; conditions: Homo sapiens, 72 h, read-out: The results of antibiotic drug inhibiting cancer cell lines (cell viability analysis), SAS
[13] = tested on: HeLa (Cervix Adenocarcinoma); assay: Cell viability analysis, cervical cancer HeLa; format: cell-based, human; conditions: Homo sapiens, HeLa
[14] = tested on: MKN-45 (Gastric Adenocarcinoma); assay: Cell viability analysis, gastric cancer MKN-45; format: cell-based, human; conditions: Homo sapiens, MKN-45
[15] = tested on: PC3 (p53−) (Prostate Adenocarcinoma); assay: Cell viability analysis, prostate cancer PC3; format: cell-based, human; conditions: Homo sapiens
T24 = assay: Cell viability analysis, bladder cancer T24; format: cell-based, human; conditions: Homo sapiens, T-24, 72 h, read-out: The results of antibiotic drug inhibiting cancer cell lines (cell viability analysis), T24
TOV-21G = assay: Cell viability analysis, ovarian cancer TOV-21G; format: cell-based, human; conditions: Homo sapiens, TOV21G, 72 h, read-out: The results of antibiotic drug inhibiting cancer cell lines (cell viability analysis), TOV-21G
[16] = tested on: C-33A (Cervical carcinoma); assay: Cell viability analysis, cervical cancer C-33A; format: cell-based, human; conditions: Homo sapiens, C-33-A, 72 h, read-out: The results of antibiotic drug inhibiting cancer cell lines (cell viability analysis), C-33A
[17] = tested on: HCT116 (p53+) (Colorectal Carcinoma)
[18] = tested on: MDA-MB-231 (Mammary Gland, Adenocarcinoma); assay: Cell viability analysis, breast cancer MDA-MB-231; format: cell-based, human; conditions: Homo sapiens, MDA-MB-231, 72 h, read-out: The results of antibiotic drug inhibiting cancer cell lines (cell viability analysis), MDA-MB231
NIH: OVCAR-3 = assay: Cell viability analysis, ovarian cancer NIH: OVCAR-3; format: cell-based, human; conditions: Homo sapiens, OVCAR-3, 72 h, read-out: The results of antibiotic drug inhibiting cancer cell lines (cell viability analysis), NIH-OVCAR-3
[19] = tested on: MCF7 (Mammary Gland, Adenocarcinoma); assay: Cell viability analysis, breast cancer MCF7; format: cell-based, human; conditions: Homo sapiens
U-2OS = assay: Cell viability analysis, osteosarcoma U-2OS; format: cell-based, human; conditions: Homo sapiens, U2OS, 72 h, read-out: The results of antibiotic drug inhibiting cancer cell lines (cell viability analysis), U2OS

CCC[C@H](NC(=O)[C@@H]1[C@H]2CCC[C@H]2CN1C(=O)[C@@H](NC(=O)[C@@H](NC(=O)c1cnccn1)C1CCCCC1)C(C)(C)C)C(=O)C(=O)NC1CC1 [Telaprevir (VX-950), Telaprevir]
viability at 10 µM ([1]; 72 h, AGS, repeated experiment, read-out: The results of antibiotic drug inhibiting cancer cell lines (cell viability analysis), AGS): 111%
viability at 10 µM ([1]; drug 10 μM, 72 hours, WST-1, OD450 nm, read-out: cell viability (survival rate), AGS): 49.2%
viability at 10 µM [2]: 121%
viability at 10 µM ([3]; A-375, 72 h, A375, repeated experiment, read-out: The results of antibiotic drug inhibiting cancer cell lines (cell viability analysis), A375): 105%
viability at 10 µM ([3]; A-375, drug 10 μM, 72 hours, WST-1, OD450 nm, read-out: cell viability (survival rate), A375): 131%
viability at 10 µM (AsPC-1): 69.3%
viability at 10 µM [4]: 92.5%
viability at 10 µM ([5]; 72 h, TSGH-8301, repeated experiment, read-out: The results of antibiotic drug inhibiting cancer cell lines (cell viability analysis), TSGH-8301): 103%
viability at 10 µM ([5]; drug 10 μM, 72 hours, WST-1, OD450 nm, read-out: cell viability (survival rate), TSGH): 50.2%
viability at 10 µM ([6]; 72 h, repeated experiment, read-out: The results of antibiotic drug inhibiting cancer cell lines (cell viability analysis), HepG2): 114%
viability at 10 µM ([6]; drug 10 μM, 72 hours, WST-1, OD450 nm, read-out: cell viability (survival rate), HepG2): 100%
viability at 10 µM ([7]; NCI-H1650, 72 h, H1650, repeated experiment, read-out: The results of antibiotic drug inhibiting cancer cell lines (cell viability analysis), H1650): 107%
viability at 10 µM ([7]; NCI-H1650, drug 10 μM, 72 hours, WST-1, OD450 nm, read-out: cell viability (survival rate), H1650): 51.6%
viability at 10 µM [8]: 111%
viability at 10 µM (BxPC-3): 63.9%
viability at 10 µM ([9]; 72 h, repeated experiment, read-out: The results of antibiotic drug inhibiting cancer cell lines (cell viability analysis), A549): 80.4%
viability at 10 µM ([9]; drug 10 μM, 72 hours, WST-1, OD450 nm, read-out: cell viability (survival rate), A549): 49.3%
viability at 10 µM [10]: 94.8%
viability at 10 µM ([11]; 72 h, repeated experiment, read-out: The results of antibiotic drug inhibiting cancer cell lines (cell viability analysis), LoVo): 87%
viability at 10 µM ([11]; drug 10 μM, 72 hours, WST-1, OD450 nm, read-out: cell viability (survival rate), LoVo): 73.7%
viability at 10 µM [12]: 67.6%
viability at 10 µM ([13]; 72 h, repeated experiment, read-out: The results of antibiotic drug inhibiting cancer cell lines (cell viability analysis), HeLa): 92.6%
viability at 10 µM ([13]; drug 10 μM, 72 hours, WST-1, OD450 nm, read-out: cell viability (survival rate), HeLa): 84%
viability at 10 µM ([14]; 72 h, repeated experiment, read-out: The results of antibiotic drug inhibiting cancer cell lines (cell viability analysis), MKN-45): 107%
viability at 10 µM ([14]; drug 10 μM, 72 hours, WST-1, OD450 nm, read-out: cell viability (survival rate), MKN-45): 48%
viability at 10 µM ([15]; 72 h, PC-3, repeated experiment, read-out: The results of antibiotic drug inhibiting cancer cell lines (cell viability analysis), PC-3): 89.2%
viability at 10 µM ([15]; drug 10 μM, 72 hours, WST-1, OD450 nm, read-out: cell viability (survival rate), PC3): 50%
viability at 10 µM (T24): 115%
viability at 10 µM (TOV-21G): 81.6%
viability at 10 µM [16]: 102%
viability [17]: 93.6%
viability at 10 µM [18]: 95.6%
viability at 10 µM (NIH: OVCAR-3): 95.6%
viability at 10 µM ([19]; MCF7, 72 h, MCF-7, repeated experiment, read-out: The results of antibiotic drug inhibiting cancer cell lines (cell viability analysis), MCF-7): 76.4%
viability at 10 µM ([19]; MCF7, drug 10 μM, 72 hours, WST-1, OD450 nm, read-out: cell viability (survival rate), MCF7): 61.6%
viability at 10 µM (U-2OS): 63.4%
